Patent US6384030B1, “Water soluble azoles as broad-spectrum antifungals” (priority 1998, dated 2002)
Values after ≈ are worked out from the molar mass of the structure shown.

What was measured:
[1] = Saksena et al., Bioorganic & Medicinal Chemistry Letters (1995), 5(2), 127-132; cited from earlier work
Zygomycetes = experiment: Minimum fungicidal concentration (example C2); assay type: cell-based; details: 10 Zygomycetes; RPMI 1640 buffered with MOPS, 2% glucose; subculture on Sabouraud glucose agar; read-out: Geometric mean minimum fungicidal concentrations
Method: (§1) A panel of 24 Candida isolates, 8 isolates of Aspergillus spp., 8 dermatophytes, 10 Zygomycetes, 10 Fusarium spp., 2 Cryptococcus neoformans and 8 dematiaceous hyphomycetes was used.
(§2) Inocula were prepared as in example C1 but the culture medium used in this test was RPMI 1640 buffered with MOPS, with 2% glucose (Odds, F. C., Antimicrobial Agents and Chemotherapy, 1995, 39, 2051-2060). Test compounds were added to the medium from DMSO solutions to give final concentrations in the series 10, 3.2, 1.0, 0.32, 0.10, 0.032, 0.010,0.0032 and 0.0010 μM. Incubation times and temperatures were as in example C1. Once the microdilution plates had been read for growth turbidity spectrophotometrically, samples of material were removed from the test cultures to inoculate 10 μl volumes on plates of Sabouraud glucose agar. The plates were incubated at 37° C. for 48 hours for yeasts or at other times and temperatures for other species. Geometric mean minimum fungicidal concentrations in μM which were determined as the lowest concentrations of the test compound that completely or substantially eliminated reappearance of fungal growth on the Sabouraud plates

Candida spp. [2] = experiment: Minimum fungicidal concentration (example C2); assay type: cell-based; details: 24 Candida isolates; RPMI 1640 buffered with MOPS, 2% glucose; subculture on Sabouraud glucose agar; read-out: Geometric mean minimum fungicidal concentrations
Method: as §1, §2

Fusarium spp. = experiment: Minimum fungicidal concentration (example C2); assay type: cell-based; details: 10 Fusarium spp.; RPMI 1640 buffered with MOPS, 2% glucose; subculture on Sabouraud glucose agar; read-out: Geometric mean minimum fungicidal concentrations
Method: as §1, §2

Candida spp. [3] = experiment: Fungal susceptibility, Panel 1 (example C1); assay type: cell-based; details: Panel 1: 8 isolates of Candida spp. incl. an azole-resistant C. albicans strain; CYG broth; 37° C. for 48 hours; growth below 35% of control; read-out: geometric mean minimum inhibitory concentration-value (MIC)
[4] = system: other fungi (3 dermatophyte isolates, Aspergillus migatus, Cryptococcus neoformans, Sporothrix schenckii); experiment: Fungal susceptibility, Panel 2 (example C1); assay type: cell-based; details: Panel 2: 6 other fungi (3 dermatophytes, Aspergillus, Cryptococcus neoformans, Sporothrix schenckii); CYG broth; growth below 35% of control
[5] = Water solubility (example D1); assay type: physicochemical; details: aqueous buffer, thermodynamic from solid; water buffered with 0.1 M citric acid and 0.2 M Na2HPO4 (pH =4); shaken 1 day at room temperature; UV

Row | SMILES | activity as antifungal compared to SCH 51048 [1] | MFC (Zygomycetes) [µM] | MFC (Candida spp. [2]) [µM] | MFC (Fusarium spp.) [µM] | MIC (Candida spp. [3]) [µM] | MIC [4] [µM] | solubility at 1 day [5] [µg/mL]
1 | CN(C)CCn1ncn(-c2ccc(N3CCN(c4ccc(OC[C@@H]5CO[C@@](Cn6cncn6)(c6ccc(F)cc6F)C5)cc4)CC3)cc2)c1=O (relative stereo) [(3R-cis)-4-[4-[4-[4-[[5-(2,4-difluorophenyl)tetrahydro-5-(1H-1,2,4-triazol-1-ylmethyl)-3-furanyl]methoxy]phenyl]-1-piperazinyl]phenyl]-2-[2-(dimethylamino)ethyl]-2,4-dihydro-3H-1,2,4-triazol-3-one] | profoundly less active | – | – | – | – | – | –
2 | C[C@@H](N[C@H](C)[C@H](C)n1ncn(-c2ccc(N3CCN(c4ccc(OC[C@@H]5CO[C@@](Cn6cncn6)(c6ccc(F)cc6F)O5)cc4)CC3)cc2)c1=O)c1ccccc1 (relative stereo) [Compound 86, [2S-[2α,4α[(R*,S*)(S*)]]]-4-[4-[4-[4-[[2-(2,4-difluoropheny)-2-(1H-1,2,4-triazol-1-yl-methyl)-1,3-dioxolan-4-yl]methoxy]phenyl]-1-piperazinyl]phenyl]-2,4-dihydro-2-[2-[(1-phenylethyl)amino]-1-methylpropyl]-3H-1,2,4-triazol-3-one] | – | 1 to 10 (≈ 0.792 to 7.92 µg/mL) | 1 to 10 (≈ 0.792 to 7.92 µg/mL) | 1 to 10 (≈ 0.792 to 7.92 µg/mL) | 0.01 to 1 (≈ 0.00792 to 0.792 µg/mL) | 0.01 to 1 (≈ 0.00792 to 0.792 µg/mL) | > 100
